{
  "source": "paper PMC8571031",
  "about": "“Stimulation of Ca^2+‐ATPase Transport Activity by a Small‐Molecule Drug” (Chemmedchem, 2021)",
  "target": "T1, sarco(endo)plasmic reticulum Ca2+-ATPase (SERCA1a isoform) (Oryctolagus cuniculus, UniProt P04191)",
  "T1 construct": "gene ATP2A1; purified SERCA1a from rabbit skeletal muscle SR in reconstituted proteoliposomes; native SR vesicles for the EC50",
  "T1 sequence (P04191 1-993)": "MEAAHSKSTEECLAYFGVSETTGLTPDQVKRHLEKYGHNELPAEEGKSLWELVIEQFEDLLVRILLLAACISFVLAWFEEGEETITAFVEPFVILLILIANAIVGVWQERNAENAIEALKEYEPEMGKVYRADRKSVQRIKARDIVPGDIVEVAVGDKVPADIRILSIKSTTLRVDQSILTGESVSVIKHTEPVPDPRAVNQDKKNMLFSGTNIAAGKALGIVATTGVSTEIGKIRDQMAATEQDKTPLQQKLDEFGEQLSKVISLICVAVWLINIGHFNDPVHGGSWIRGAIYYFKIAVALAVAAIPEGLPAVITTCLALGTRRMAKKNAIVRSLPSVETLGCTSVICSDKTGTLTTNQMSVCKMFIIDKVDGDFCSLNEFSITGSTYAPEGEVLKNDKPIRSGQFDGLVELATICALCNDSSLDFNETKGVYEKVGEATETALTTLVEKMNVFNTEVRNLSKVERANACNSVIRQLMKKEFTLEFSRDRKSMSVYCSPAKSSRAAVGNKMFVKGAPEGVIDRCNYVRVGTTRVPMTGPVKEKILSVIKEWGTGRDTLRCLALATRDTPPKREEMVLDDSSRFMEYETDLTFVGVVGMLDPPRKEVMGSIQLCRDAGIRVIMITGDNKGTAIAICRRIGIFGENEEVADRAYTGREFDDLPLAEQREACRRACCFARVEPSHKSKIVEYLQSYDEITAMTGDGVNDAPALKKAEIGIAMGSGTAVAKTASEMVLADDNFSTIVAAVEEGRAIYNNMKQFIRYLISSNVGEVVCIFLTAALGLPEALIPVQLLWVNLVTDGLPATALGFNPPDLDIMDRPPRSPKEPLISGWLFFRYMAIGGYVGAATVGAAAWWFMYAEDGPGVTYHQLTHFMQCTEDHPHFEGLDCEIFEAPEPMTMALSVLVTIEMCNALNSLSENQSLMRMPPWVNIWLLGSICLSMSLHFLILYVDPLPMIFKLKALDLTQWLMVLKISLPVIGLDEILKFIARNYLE",
  "assay": "SSM electrical measurement of ATP-induced charge translocation (activation); EC50 on native SR vesicles, direct action confirmed with purified SERCA1a proteoliposomes",
  "format": "biochemical",
  "data": [
    {"smiles": "Cc1ccc2cccc(NC(=O)c3ccc(OC(C)C)cc3)c2n1", "note": "[CDN1163]", "values": [
      {"measurement": "EC50", "value": "6 ± 0.3", "unit": "µM"}
    ]}
  ]
}
